Marks after values point to notes of the source that are not given here.
Legend:
[1] = T1 of carbon-13 nuclei in the choline moiety of CDP-choline; assay type: physicochemical; conditions: 11.8 T, non-deuterated positions
Source text: Furthermore, it was unexpected to find that the relaxation time of the phosphorus nuclei is longer in plasma as compared to water.

[2] = intravenous administration; cited from earlier work
[3] = 31P T1 (spin-lattice relaxation) measurement of CDP-Choline phosphates by inversion recovery, in water and in plasma; assay type: physicochemical; conditions: 31P-NMR, 11.8T, confidence interval in brackets
Description: […] CDP-Choline were dissolved in 700 μL distilled water containing 10% deuterated water (85.7 mM solution) and stored in a 5 mm NMR tube in the freezer until assay.
Two units of expired plasma (about 250 cc per unit) from blood type AB and O were obtained frozen from the blood bank section at Hadassah Medical Center. Plasma was defrosted in the refrigerator overnight. 565 μl of plasma solution was mixed with 75 IA distilled water and transferred to a 5 mm NMR tube. The solution was kept on ice until NMR analysis the same day. 60 μl CDP-Choline was added to the solution and ^31P-NMR was recorded 37 s from the time CDP-Choline mixed with the plasma solutions in the NMR tube. The Ionic strength of the solution was 315.04 mM and the concentration of CDP-Choline 15.4 mM.
Spectra were obtained on an 11.8T high-resolution spectrometer (Varian, Palo Alto, Calif., USA) with a 5 mm direct multi-nuclei probe.
T1 measurements were performed for CDP-Choline in water and in plasma with the standard inversion recovery pulse sequence. The data were fitted to the standard inversion recovery equation using the MATLAB software (The MathWorks Inc., Natick, Mass., USA).

## C[N+](C)(C)CCOP(=O)(O)OP(=O)(O)OC[C@H]1O[C@@H](n2ccc(N)nc2=O)[C@H](O)[C@@H]1O [CDP-Choline, 5′-O-[hydroxy({hydroxy[2-(trimethylammonio)ethoxy]phosphoryl}oxy)phosphoryl]cytidine]
[1]
  T1 of the carbon-13 nuclei in the choline moiety: 2 to 3 s
[2]
  LD0 of CDP-Choline compared to choline: about 40 fold
[3]; H2O, 85.7 mM
  T1 of phosphate P1: 1.2 (0.9-1.5) s
  T1 of phosphate P2: 1.4 (1.3-1.6) s
[3]; plasma, 15.4 mM
  T1 of phosphate P1: 2.0 (1.9-2.0)* s
  T1 of phosphate P2: 2.6 (2.4-2.8) s

Reference: patent publication US20140099262A1, “ISOTOPICALLY LABELED CDP-CHOLINE AND USES THEREOF” (BRAIN WATCH LTD., priority 2011, published 2014)
